Assay results: US4312866A, “Use of rifamycin SV and its related salts in the treatment of rheumatoid arthritis, and related formulations suited for the purpose” (priority 1979, dated 1982)
Entries after “also recorded” stand apart in the source; their conditions may differ. Structures can show the parent of a compound that is named as a salt.

Key:
[1] = Rifamycin levels in monoarthritic guinea-pig after intra-articular administration; assay type: in vivo; details: monoarthritic guinea-pig (gamma-globulin arthritis)
Source text: The observation that in the monoarthritic guinea-pig (gamma-globulin arthritis) rifamycin arginine salt levels, 10 times higher than in the case of rifamycin sodium salt, can be observed following an intra-articular administration of either rifamycin sodium salt or arginine salt, proves in full agreement with the above mentioned datum.

[2] = system: rabbit's spinal sac; experiment: Local tolerability after injection into the rabbit's spinal sac; assay type: in vivo; details: 60-mg injection once daily for three consecutive days, versus commercial solutions of rifamycin SV
[3] = pH of aqueous solutions of the salts; assay type: physicochemical
[4] = system: persistent effusions in one or both knees
Experimental: In a second clinical experimental course, 75 patients, presenting with persistent effusions in one or both knees were given 500 mg of rifamycin SV (in the form of a L-arginine salt) every seven days, still by intra-articular injection.

[5] = clinical; details: in vivo
Experimental: (§1) The rifamycin levels, present in the biological fluids of treated patients, were assayed by high pressure liquid chromatography (HPLC), a method more reliable and reproducible than the ultraviolet or microbiological method.
(§2) The synovial fluid samples were directly injected into the chromatograph after precipitation of the proteins with acetonitrile on the other hand, the serum samples had to be previously extracted with ethyl acetate at an acid pH.
(§3) A Hewlett Packard chromatograph is used, model 104 B, fitted with a fixed wave length detector (254 nm); RP 18 (10 mc) column, 25-cm length, […].
(§4) The following eluent is used: (A) an 80:20 mixture of 0.01 M phosphate buffer at pH 7 and acetonitrile; (B) acetonitrile. The gradient shifts from the 10 percent of B to the 70 percent of B within 15 minutes; the flow is 1.6 ml/minute.
(§5) The temperature of the oven is 35° C.; that of the eluent A is 60 percent and the one of the eluent B 40 percent.
(§6) Rifamycin SV and its oxidized form, ie rifamycin S, are used as standard.
In order to establish the standard lines in the synovial fluid, 500 mg of each single compound are dissolved in one liter exactly of a 1:1 water-methanol mixture.
(§7) The two absorption lines are made up injecting 5 mcl, 10 mcl and 15 mcl of said solutions into the chromatograph.
Determination of rifamycin SV in the synovial fluid
This determination is directly carried out on the deproteinized synovial fluid. 200 mcl of sample are introduced into a centrifuge test tube, and added with 2 ml of acetonitrile.
The resulting solution is stirred, and allowed to decant; 20 mcl of supernatant fluid are thereafter injected into the chromatograph. The samples are analyzed immediately in order to prevent the oxidation of rifamycin SV into rifamycin S.
(§8) The data are expressed as mcg/ml.

[6] = system: joint sites other than the knee (wrist, hand's metacarpophalangeal and interphalangeal joints, tibiotarsal joints, etc); experiment: Infiltrations into joint sites other than the knee; assay type: in vivo, patients; details: approximately 300 joints
Source text: (§9) Two of the 75 patients had to stop the treatment because of the above mentioned untoward side effect.

[7] = Solubility of the salts; assay type: physicochemical
[8] = Comparison of synovial fluid rifamycin levels, sodium salt vs arginine salt (Table 2); assay type: in vivo, patients; details: equivalent to 500 mg rifamycin SV; for concentration at 5 min / concentration at 1 h / concentration at 2 h / concentration at 4 h / concentration at 8 h: human, synovial fluid, mean of eight determinations
[9] = Stability of solutions and lyophilyzed salts; assay type: physicochemical; details: dry state
[10] = system: cultures of synovial membrane fragments; experiment: Inhibiting activity on cultures of synovial membrane fragments; assay type: cell-based; details: needle biopsy, patients with suspected rheumatoid arthritis
Source text: as §9

[11] = system: rheumatoid arthritis; experiment: Intra-articular injections in rheumatoid arthritis (general statement); assay type: in vivo; details: rheumatoid arthritis patients
[12] = system: rheumatoid synovitis; experiment: Clinical trials (open and double-blind) in rheumatoid synovitis; assay type: in vivo, patients
Experimental: The effects of intra-articular injections of rifamycin SV solutions in rheumatoid synovitis were assessed in two clinical trials, one carried out according to an open technique and the other one according to a double-blind experimental design. A total of 35 patients was treated, with an intra-articular injection of 200-500 mg weekly, for a maximum of 10 weeks. The patients were followed up for three years. The following laboratory diagnostic tests were made weekly on the synovial fluids: white blood cell differential count, RA test, Waaler-Rose test, latex test, immunoglobulins, T and B lymphocytes, C3 and C4 levels, glucose, acid phosphatase.
Bioptic examinations were carried out both before and after various months (1-18) after the start of the treatment.

[13] = in vivo
Experimental: as §1, §2, §3, §4, §5, §6, §7
The previous solutions are ten-fold diluted in the case of sera standard lines; the above mentioned operations are thereafter repeated.
Determination of Rifamycin in the Serum […]
as §8

[14] = synovial fluid, end of the treatment

COC1C=COC2(C)Oc3c(C)c(O)c4c(O)c(cc(O)c4c3C2=O)NC(=O)C(C)=CC=CC(C)C(O)C(C)C(O)C(C)C(OC(C)=O)C1C [L-arginine salt of rifamycin SV, rifamycin SV salt with arginine]
rifamycin arginine salt levels vs rifamycin sodium salt [1]: 10 times higher | local tolerability [2]: optimal and definitely better than that observed in the case of commercial solutions | pH of 10 percent aqueous solution ([3]; 10 percent aqueous solution): 6.7 | patients with complete subsidence of effusions and marked clinical improvement ([4]; 500 mg rifamycin SV every seven days intra-articular, of 75 patients): seventy-two | patients with effusional relapse ([4]; 1-6 months after the start of the treatment): 3 patients | patients not responding to 12 infiltrations ([4]; 12 infiltrations): one | synovial fluid leukocytes ([4]; P<0.001): significant decrease | C3 and C4 complemental fractions in synovial fluid ([4]; P<0.005): increase | relation of number of infiltrations with activity of the local synovitis ([4]; P<0.05): strictly related | patients requiring 1-3 infiltrations to induce effusion subsidence ([4]; out of 72): 12 patients | patients requiring 4-6 infiltrations to induce effusion subsidence ([4]; out of 72): 33 patients | patients requiring 7-12 infiltrations to induce effusion subsidence ([4]; out of 72): 27 patients | concentration at 0.25 h ([5]; human): 4930 ± 550 µg/mL | analgesic and anti-inflammatory activity [6]: potent analgesic and anti-inflammatory activity | joint function [6]: overall improvement of joint function | morning stiffness [6]: marked reduction, and quite often in a complete subsidence | solubility in acetone ([7]; listed as arginine salt): highly soluble | solubility in chloroform ([7]; chloroform): sparingly soluble | solubility in ethyl acetate ([7]; listed as arginine salt): sparingly soluble | solubility in methanol ([7]; listed as arginine salt): highly soluble | solubility in water ([7]; listed as arginine salt): highly soluble | solubility in water ([7]; listed as arginine salt of rifamycin SV): optimal water solubility properties | synovial fluid levels compared with sodium salt ([8]; intra-articular): marked superiority | concentration at 5 min [8]: 7160 ± 2100 µg/mL | concentration at 1 h [8]: 3850 ± 800 µg/mL | concentration at 2 h [8]: 1730 ± 1000 µg/mL | concentration at 4 h [8]: 750 ± 300 µg/mL | concentration at 8 h [8]: 173 ± 100 µg/mL

COC1C=COC2(C)Oc3c(C)c(O)c4c(O)c(cc(O)c4c3C2=O)NC(=O)C(C)=CC=CC(C)C(O)C(C)C(O)C(C)C(OC(C)=O)C1C (centres unmarked) [histidine salt, rifamycin SV salt with histidine]
pH of 20 percent aqueous solutions ([3]; 20 percent aqueous solutions): 6.4-6.7 | solubility in acetone [7]: good | solubility in benzene ([7]; benzene): practically nil | solubility in ethanol ([7]; ethanol): good | solubility in ether ([7]; ether): practically nil | solubility in ethyl acetate [7]: practically nil | solubility in isopropanol ([7]; isopropanol): practically nil | solubility in methanol [7]: high | solubility in water [7]: high

CO[C@H]1/C=C/O[C@@]2(C)Oc3c(C)c(O)c4c(O)c(cc(O)c4c3C2=O)NC(=O)/C(C)=C\C=C\[C@H](C)[C@H](O)[C@@H](C)[C@@H](O)[C@@H](C)[C@H](OC(C)=O)[C@@H]1C [rifamycin SV sodium salt, reference compound]
solubility in water [7]: scarcely soluble in water | preservation of lyophilyzed salt [9]: can be preserved for years at room temperature | concentration at 5 min [8]: 6700 ± 200 µg/mL | concentration at 1 h [8]: 1530 ± 490 µg/mL | concentration at 2 h [8]: 485 ± 180 µg/mL | concentration at 4 h [8]: 439 ± 180 µg/mL | concentration at 8 h [8]: 140 ± 67 µg/mL

COC1C=COC2(C)Oc3c(C)c(O)c4c(O)c(cc(O)c4c3C2=O)NC(=O)C(C)=CC=CC(C)C(O)C(C)C(O)C(C)C(OC(C)=O)C1C (centres unmarked) [rifamycin SV]
inhibiting activity on cultures of synovial membrane fragments [10]: inhibiting activity of rifamycin SV was demonstrated | resolution of the pathologic condition [11]: rapid resolution of the pathologic condition as well as to the patient's complete cure | initial local pain ([4]; human, in vivo): majority of the patients | patients who had to stop the treatment because of side effect ([4]; human, in vivo): Two | patients with local retarded painful reaction ([4]; human, in vivo): 28 patients | diffusion of rifamycin SV injected into the joint [5]: scarce diffusion | rifamycin species present in the synovial fluid [5]: Only rifamycin SV is present in the synovial fluid | patients with reappearance of exudate ([12]; 35 patients, followed up for three years): two | disappearance of exudate ([12]; 200-500 mg weekly intra-articular, maximum 10 weeks): completely disappeared after the third and within the tenth instillation | histological variations of the knees ([12]; biopsies before and 1-18 months after start of treatment): reduction of synovial cell infiltrates; also recorded: increase of newly-formed connective tissue; also recorded: surrounding areas with a residual hyperplastic synovia; also recorded: depositions of a new partially organized fibrin | immunological parameters ([12]; end of the treatment): No variations | RA cells [12, 14]: significant drop | polymorphocyte percentage [12, 14]: significant drop | total leukocytes [12, 14]: significant drop

COC1C=COC2(C)Oc3c(C)c(O)c4c(c3C2=O)C(=O)C=C(NC(=O)C(C)=CC=CC(C)C(O)C(C)C(O)C(C)C(OC(C)=O)C1C)C4=O (centres unmarked) [rifamycin S]
rifamycin species present in the serum [13]: serum also contains rifamycin S
